The record followed here is ChEMBL document CHEMBL1201862, “PubChem BioAssay data set” (2004).

Test systems include MDA-MB-231; HCT-15; MCF7; SF-268; SK-MEL-28; NCI-H23; LOX IMVI; SF-295; SNB-19; HCC 2998; CAKI-1; UACC-62; U-251; SN12C; BT-549; SNB-75.
Assay in all cases: growth of human tumour cells (NCI), 48 h

Molecules are shown by their SMILES.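 Cultured in 96-well plates, cells were exposed to test compound for 48 hours across five concentrations. The concentration for 50% growth inhibition is given as GI50.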 The source made the active and inactive calls. Cut-off read from the data, not from the text of the source: active = GI50 up to about 1.1 µM and inactive = higher.

Take `Clc1ccc(C2ON=C(c3ccccc3)N2C23CC4CC(CC(C4)C2)C3)cc1` (stereo not given): the GI50 is > 10 µM (inactive) in the test on MDA-MB-231; over 10 µM in the test with HCT-15; > 10 µM (inactive) in the test on MCF7; > 10 µM (inactive) with SF-268; > 10 µM (inactive) in the test on SK-MEL-28; > 10 µM (inactive) in the test on NCI-H23. Also, the GI50 in the test on LOX IMVI, in the test with SF-295, with SNB-19, in the test on HCC 2998, in the test on CAKI-1 and in the test with UACC-62 was > 10 µM (inactive) throughout. Besides, the GI50 in the test with U-251, in the test with SN12C, in the test with BT-549 and with SNB-75 was > 10 µM (inactive) in each case.

On to `NCCN1C(=O)c2ccccc2C1c1ccc(Cl)cc1` (stereo not given), for which the GI50 with MDA-MB-231 is > 100 µM (inactive); in the test on HCT-15, over 100 µM; with MCF7, > 100 µM (inactive); in the test on SF-268, > 100 µM (inactive); in the test on SK-MEL-28, > 100 µM (inactive); with NCI-H23 it was > 100 µM (inactive). For the same compound, the GI50 with LOX IMVI, in the test with SF-295, in the test with SNB-19, with HCC 2998, in the test on CAKI-1 and with UACC-62 was > 100 µM (inactive) throughout. The GI50 in the test with U-251, in the test with SN12C, with BT-549 and in the test with SNB-75 was > 100 µM (inactive) in each case.

`N#CCCN(CCNc1ccccc1)C(=O)Nc1ccc(NC(=O)N(CCC#N)CCNc2ccccc2)cc1`: the GI50 in the test on MDA-MB-231 is > 100 µM (inactive); in the test with HCT-15 it was over 60.3 µM; in the test with MCF7, > 100 µM (inactive); in the test with SF-268, > 47.4 µM (inactive); in the test on SK-MEL-28, > 94.8 µM (inactive); in the test with NCI-H23, > 68.4 µM (inactive). The GI50 in the test with LOX IMVI is 51.1 µM (inactive); in the test on SF-295 it was > 74.6 µM (inactive); in the test with SNB-19 it was > 100 µM (inactive); in the test with HCC 2998 it was > 100 µM (inactive); in the test with CAKI-1 it was > 100 µM (inactive); in the test on UACC-62 it was > 100 µM (inactive). Besides, the GI50 was > 100 µM (inactive) in the test with U-251, > 100 µM (inactive) in the test on SN12C, > 38.5 µM (inactive) with BT-549 and 26.2 µM (inactive) in the test with SNB-75.

As for `Cc1ccc(Nc2nc(=S)[nH]c3[nH]ncc23)cc1`, the GI50 in the test on MDA-MB-231 is > 100 µM (inactive); in the test on HCT-15, 47.6 µM; in the test with MCF7, 37.3 µM (inactive); in the test on SF-268, > 100 µM (inactive); in the test with SK-MEL-28, 48.3 µM (inactive); in the test on NCI-H23, 59.7 µM (inactive). Moreover, the GI50 in the test with LOX IMVI is 37.5 µM (inactive); with SF-295 it was 71.3 µM (inactive); with SNB-19, > 100 µM (inactive); with HCC 2998, 77.3 µM (inactive); in the test on CAKI-1, 58.1 µM (inactive); with UACC-62, 37.7 µM (inactive). For the same compound, the GI50 is 64.7 µM (inactive) in the test with U-251, 71.8 µM (inactive) with SN12C, > 100 µM (inactive) with BT-549 and > 100 µM (inactive) with SNB-75.

As to `COc1cccc(-c2cc(O)c3cccnc3n2)c1`, the GI50 with MDA-MB-231 was 1.27 µM (inactive); in the test with HCT-15, 0.0873 µM; in the test on MCF7, 0.488 µM (active); with SF-268, 0.611 µM (active); with SK-MEL-28, 0.234 µM (active); with NCI-H23 it was 0.204 µM (active). In addition, the GI50 was 0.0867 µM (active) in the test with LOX IMVI; 0.075 µM (active) with SF-295; 0.213 µM (active) in the test with SNB-19; 0.251 µM (active) with HCC 2998; 0.0984 µM (active) in the test with CAKI-1; 0.0662 µM (active) in the test on UACC-62. The GI50 was 0.0984 µM (active) in the test with U-251, 0.406 µM (active) in the test on SN12C, > 100 µM (inactive) in the test on BT-549 and 0.0857 µM (active) in the test with SNB-75.

For `O=C(CC(=O)N1N=C(N2CCCCC2)CC1c1ccccc1)Nc1ccc(Cl)cc1` (stereo not given), the GI50 in the test with MDA-MB-231 was > 100 µM (inactive); with HCT-15 it was over 100 µM; with MCF7 it was > 100 µM (inactive); with SF-268 it was > 100 µM (inactive); with SK-MEL-28, > 100 µM (inactive); in the test with NCI-H23 it was > 100 µM (inactive). Further, the GI50 in the test on LOX IMVI, in the test on SF-295, in the test on SNB-19, in the test on HCC 2998, in the test with CAKI-1 and with UACC-62 was > 100 µM (inactive) throughout. Besides, the GI50 with U-251, in the test on SN12C, with BT-549 and in the test with SNB-75 was > 100 µM (inactive) each time.

Regarding `CCSc1c2cc(OC)ccc2nc2ccc(OC)cc12`, the GI50 with MDA-MB-231 is 8.57 µM (inactive); with HCT-15, 8.34 µM; with MCF7 it was 4.99 µM (inactive); in the test with SF-268 it was 10.9 µM (inactive); in the test on SK-MEL-28, 14.9 µM (inactive); with NCI-H23 it was 9.44 µM (inactive). The GI50 was 13.2 µM (inactive) with LOX IMVI; 22.4 µM (inactive) with SF-295; 26.2 µM (inactive) with SNB-19; 7.53 µM (inactive) in the test with HCC 2998; 9.27 µM (inactive) in the test with CAKI-1; 10.9 µM (inactive) in the test on UACC-62. Moreover, the GI50 was 12.5 µM (inactive) in the test on U-251, 14.3 µM (inactive) in the test with SN12C, 23.7 µM (inactive) with BT-549 and 6.73 µM (inactive) with SNB-75.

As to `Cc1ccc2nc(-c3ccc(C(C)(C)C)cc3)oc(=O)c2c1`, the GI50 in the test with MDA-MB-231 was 20.6 µM (inactive); in the test with HCT-15, 16.4 µM; in the test on MCF7, 23.9 µM (inactive); with SF-268, 24.5 µM (inactive); in the test on SK-MEL-28 it was 27.4 µM (inactive); with NCI-H23 it was 19.6 µM (inactive). The GI50 in the test with LOX IMVI was 16.4 µM (inactive); in the test on SF-295 it was 17.8 µM (inactive); in the test on SNB-19, 25.2 µM (inactive); in the test with HCC 2998, 14.6 µM (inactive); with CAKI-1 it was 19.4 µM (inactive); with UACC-62 it was 17.5 µM (inactive). Further, the GI50 in the test on U-251 was 16.2 µM (inactive); with SN12C, 38.8 µM (inactive); in the test with BT-549, 24.4 µM (inactive); in the test on SNB-75 it was 14.2 µM (inactive).

In the case of `CSC(=S)OC1C(CO[Si](C)(C)C(C)(C)C)OC2OC(C)(C)OC21` (stereo not given), the GI50 with MDA-MB-231 is 17.7 µM (inactive); in the test on HCT-15, 18.4 µM; with MCF7, 16.3 µM (inactive); with SF-268, 15.2 µM (inactive); in the test with SK-MEL-28, 40.6 µM (inactive); in the test with NCI-H23 it was 19.9 µM (inactive). For the same compound, the GI50 in the test on LOX IMVI is 15.7 µM (inactive); in the test with SF-295 it was 17.4 µM (inactive); in the test on SNB-19, 21 µM (inactive); in the test with HCC 2998 it was 21.3 µM (inactive); in the test with CAKI-1, 31.6 µM (inactive); with UACC-62, 17 µM (inactive). In addition, the GI50 in the test on U-251 was 17.5 µM (inactive); in the test on SN12C, 21.3 µM (inactive); with BT-549 it was 30.8 µM (inactive); in the test with SNB-75, > 100 µM (inactive).

Turning to `Cc1ccc(Cc2nn(C)c(=O)n2-n2cccc2)cc1`, the GI50 in the test on MDA-MB-231 was > 100 µM (inactive); with HCT-15, over 100 µM; with MCF7 it was > 100 µM (inactive); with SF-268, > 100 µM (inactive); in the test with SK-MEL-28, > 100 µM (inactive); in the test with LOX IMVI it was > 100 µM (inactive). Moreover, the GI50 with SF-295, in the test with SNB-19, in the test with HCC 2998, in the test with CAKI-1, with UACC-62 and in the test on U-251 was > 100 µM (inactive) each time. Also, the GI50 in the test with SN12C, in the test on BT-549 and with SNB-75 was > 100 µM (inactive) each time.

In the case of `CCC(C)NC1=NCC(C)S1` (stereo not given), the GI50 in the test on MDA-MB-231 is > 100 µM (inactive); in the test on HCT-15, over 100 µM; in the test with MCF7 it was > 100 µM (inactive); in the test with SF-268, > 100 µM (inactive); in the test with SK-MEL-28 it was > 100 µM (inactive); in the test with NCI-H23, > 100 µM (inactive). The GI50 in the test on LOX IMVI, in the test on SF-295, in the test with SNB-19, in the test on HCC 2998, with CAKI-1 and in the test on UACC-62 was > 100 µM (inactive) in each case. In addition, the GI50 with U-251, in the test with SN12C, in the test with BT-549 and in the test with SNB-75 was > 100 µM (inactive) each time.

As to `O=C(Nc1ccc2c(c1)oc(=O)c1ccccc12)C(Cl)Cl`, the GI50 with MDA-MB-231 is > 100 µM (inactive); in the test with HCT-15, 71.1 µM; with MCF7, 34.8 µM (inactive); with SF-268, > 100 µM (inactive); in the test on SK-MEL-28, > 100 µM (inactive); in the test with NCI-H23, > 100 µM (inactive). The GI50 in the test with LOX IMVI is > 100 µM (inactive); in the test with SF-295, > 100 µM (inactive); with SNB-19, 27.3 µM (inactive); in the test with HCC 2998, 63.5 µM (inactive); in the test on CAKI-1, > 100 µM (inactive); with UACC-62 it was 36.6 µM (inactive). For the same compound, the GI50 was 60.1 µM (inactive) with U-251, > 100 µM (inactive) in the test on SN12C, > 100 µM (inactive) in the test on BT-549 and > 100 µM (inactive) in the test on SNB-75.

Consider `CCC1CCN/C(=N/S(=O)(=O)c2cc(C)c(Cl)cc2S)N1` (stereo not given), for which the GI50 in the test on MDA-MB-231 is 44.8 µM (inactive); in the test with HCT-15, 38.5 µM; in the test with MCF7, 33.3 µM (inactive); with SF-268, 57 µM (inactive); in the test with SK-MEL-28 it was 52.7 µM (inactive); in the test on LOX IMVI, 24.1 µM (inactive). The GI50 in the test with SNB-19 was 30.2 µM (inactive); in the test on HCC 2998, 43.2 µM (inactive); with CAKI-1, 30 µM (inactive); with UACC-62, 14 µM (inactive); with U-251, 13.8 µM (inactive); with SN12C it was 43.3 µM (inactive). Moreover, the GI50 is 17.7 µM (inactive) in the test on BT-549 and 40 µM (inactive) in the test on SNB-75.
